Measured values as given in US6914045B2, “Glycopeptide antibiotics” (Wyeth Holdings Corporation, priority 2001, dated 2005).
In brackets after ≈: the same amount, converted by molar mass.

What was measured:
Test in all cases: in vitro antibacterial evaluation, MIC by broth dilution
Format in all cases: cell-based
Enterococcus sp. = settings: broth dilution, 18 hours at 35° C.
Procedure, shortened: (§1)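 Broth dilution per NCCLS standard M7-A2 in Muller-Hinton II […], with an inoculum of 5×10^5 CFU/mL and antibiotic spanning 64-0.06 μg/mL. The MIC is the lowest concentration that inhibits growth of the organism.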

Escherichia coli = settings: 18 hours at 35° C.
Procedure, shortened: as §1

Staphylococcus sp. = settings: broth dilution, 18 hours at 35° C.
Procedure, shortened: as §1

CC(c1ccccc1)C1NC(=O)CNC(=O)C(CO)NC(=O)C(C(O)C2CNC(=N)N2C2OC(CO)C(O)C(O)C2O)NC(=O)C(C(O)C2CNC(=N)N2)NC(=O)C(Cc2ccc(OC3OC(CO)C(OC4OC(COC(=O)CCC5CCCC5)C(O)C(O)C4O)C(O)C3O)cc2)NC1=O (stereo not shown) [Example 100c]
MIC Enterococcus faecalis (ATCC 29212) (Enterococcus sp.; Enterococcus faecalis (ATCC 29212)): 4 µg/mL (≈ 2.82 µM) | MIC Enterococcus faecalis (GC 2242) (Enterococcus sp.; Enterococcus faecalis (GC 2242)): 2 µg/mL (≈ 1.41 µM) | MIC Enterococcus faecalis (GC 4552) (Enterococcus sp.; Enterococcus faecalis (GC 4552)): 4 µg/mL (≈ 2.82 µM) | MIC Enterococcus faecalis (ATCC 29212) (Enterococcus sp.; strain ATCC 29212): 4 µg/mL (≈ 2.82 µM) | MIC Enterococcus faecalis (GC 2242) (Enterococcus sp.; strain GC 2242): 2 µg/mL (≈ 1.41 µM) | MIC Enterococcus faecalis (GC 4552) (Enterococcus sp.; strain GC 4552): 4 µg/mL (≈ 2.82 µM) | MIC Escherichia coli (GC 4559) (Escherichia coli; strain GC 4559): 32 µg/mL (≈ 22.5 µM) | MIC Escherichia coli (GC 4560) (Escherichia coli; strain GC 4560): 0.5 µg/mL (≈ 0.352 µM) | MIC Coagulase Negative Staphylococcus (GC 4537) (Staphylococcus sp.): 1 µg/mL (≈ 0.704 µM) | MIC Coagulase Negative Staphylococcus (GC 4538) (Staphylococcus sp.): 1 µg/mL (≈ 0.704 µM) | MIC Coagulase Negative Staphylococcus (GC 4547) (Staphylococcus sp.): 1 µg/mL (≈ 0.704 µM) | MIC Staphylococcus aureus (ATCC 29213) (Staphylococcus sp.): 1 µg/mL (≈ 0.704 µM) | MIC Staphylococcus aureus (GC 1131) (Staphylococcus sp.): 1 µg/mL (≈ 0.704 µM) | MIC Staphylococcus aureus (GC 4535) (Staphylococcus sp.): 1 µg/mL (≈ 0.704 µM) | MIC Staphylococcus aureus-SMITH (GC 4536) (Staphylococcus sp.): 1 µg/mL (≈ 0.704 µM) | MIC Coagulase Negative Staphylococcus (GC 4537) (Staphylococcus sp.; strain GC 4537): 1 µg/mL (≈ 0.704 µM) | MIC Coagulase Negative Staphylococcus (GC 4538) (Staphylococcus sp.; strain GC 4538): 1 µg/mL (≈ 0.704 µM) | MIC Coagulase Negative Staphylococcus (GC 4547) (Staphylococcus sp.; strain GC 4547): 1 µg/mL (≈ 0.704 µM) | MIC Staphylococcus aureus (ATCC 29213) (Staphylococcus sp.; strain ATCC 29213): 1 µg/mL (≈ 0.704 µM) | MIC Staphylococcus aureus (GC 1131) (Staphylococcus sp.; strain GC 1131): 1 µg/mL (≈ 0.704 µM) | MIC Staphylococcus aureus (GC 4535) (Staphylococcus sp.; strain GC 4535): 1 µg/mL (≈ 0.704 µM) | MIC Staphylococcus aureus-SMITH (GC 4536) (Staphylococcus sp.; strain GC 4536): 1 µg/mL (≈ 0.704 µM)
